ChEMBL document CHEMBL1132510, “[35S]S-[5-(4-benzoylphenyl)pentyl]glutathione: a versatile radioligand targeting GS-X pumps with the ability of photoaffinity labeling” (Bioorg Med Chem Lett, 1999)

Tests used:
HL-60 [1] = assay: Compound was evaluated for the competitive inhibition of the MRP1/GS-X pump mediated transport of LTC4 in the cisplatin-resistant human leukemia HL-60 (HL-60/R-CP) cells; assay type: functional, cell-based
HL-60 [2] = assay: Inhibitory activity against MRP1/GS-X pump mediated transport of delta7-PGA1 methyl ester glutathione conjugate in the cisplatin-resistant human leukemia HL-60 (HL-60/R-CP) cells; assay type: functional, cell-based

N[C@@H](CCC(=O)N[C@@H](CSCCCCCc1ccc(C(=O)c2ccccc2)cc1)C(=O)NCC(=O)O)C(=O)O
IC50 (HL-60 [1]): 0.4 µM
IC50 (HL-60 [2]): 0.52 µM
